Common to all, as to assay type: cell-based
One assay concerns HepG2. Nature of the assay: MTT antiproliferative assay, HepG2. The conditions noted are these: Homo sapiens, HepG2, 72 h, read-out: IC50 values HepG2.
The next assay has as its system MCF7. Nature of the assay: MTT antiproliferative assay, MCF7. The conditions noted are these: Homo sapiens, MCF7, 72 h, read-out: IC50 values MCF7. (Tetrazolium assays rely on reduction of a dye to a coloured formazan, in cell work by metabolically active cells.)
Another assay relates to A549. Nature of the assay: MTT antiproliferative assay, A549. The settings on record: Homo sapiens, A549, 72 h, read-out: IC50 values A549.
The next assay has as its system MCF-10A. The assay can be described thus: MTT cytotoxicity assay, noncancerous MCF-10A. The conditions noted are these: Homo sapiens, 72 h, read-out: IC50 values MCF-10A.

This note sets out measurements from paper PMC10720285 (ACS Omega, 2023).

What is called IC50 is the concentration that inhibits the measured activity by half.

With `N#CC1=C(N)OC2=C(C(=O)CCC2)C1c1cccs1` (centres unmarked) [Compound 1, 2-Amino-5-oxo-4-(thiophen-2-yl)-5,6,7,8-tetrahydro-4H-chromene-3-carbonitrile], the concentration for half-maximal inhibition (IC50) in the assay with HepG2 worked out at 33.9 ± 3.34 µM; in the assay on MCF7, 39.8 ± 3.35 µM; in the assay on A549, 36.3 ± 3.37 µM.

In the case of `CCO/C=N/C1=C(C#N)C(c2cccs2)C2=C(CCCC2=O)O1` (centres unmarked) [Compound 2, Ethyl (E)-N-(3-Cyano-5-oxo-4-(thiophen-2-yl)-5,6,7,8-tetrahydro-4H-chromen-2-yl)formimidate], the IC50 in the assay on HepG2 came to 27.3 ± 3.87 µM; with MCF7, 29.4 ± 2.35 µM; in the assay on A549 it was 29.9 ± 3.05 µM.

On to `N=c1c2c(ncn1N)OC1=C(C(=O)CCC1)C2c1cccs1` (centres unmarked) [Compound 3, 3-Amino-4-imino-5-(thiophen-2-yl)-3,4,5,7,8,9-hexahydro-6H-chromeno[2,3-d]pyrimidin-6-one], for which the IC50 in the assay with HepG2 came to 2.02 ± 0.15 µM; with MCF7, 1.61 ± 0.12 µM; in the assay with A549, 1.87 ± 0.32 µM; with MCF-10A, 77.3 ± 3.22 µM.

In the case of `Nc1nc(=O)[nH]c2c1C(c1cccs1)C1=C(CCCC1=O)O2` (centres unmarked) [Compound 4a, 4-Amino-5-(thiophen-2-yl)-5,7,8,9-tetrahydro-2H-chromeno[2,3-d]pyrimidine-2,6(1H)-dione], the concentration for half-maximal inhibition (IC50) in the assay on HepG2 was determined as 13.7 ± 3.81 µM; in the assay with MCF7 it was 14.3 ± 2.05 µM; with A549 it was 14.9 ± 3.12 µM; in the assay with MCF-10A, 60.1 ± 2.31 µM.

Turning to `Nc1nc(=S)[nH]c2c1C(c1cccs1)C1=C(CCCC1=O)O2` (centres unmarked) [Compound 4b, 4-Amino-5-(thiophen-2-yl)-2-thioxo-1,2,5,7,8,9-hexahydro-6H-chromeno[2,3-d]pyrimidin-6-one], the half-maximal inhibitory concentration (IC50) in the assay on HepG2 was 17.8 ± 2.04 µM; in the assay on MCF7, 18.8 ± 3.19 µM; in the assay with A549, 17.1 ± 3.17 µM; in the assay with MCF-10A, 58.1 ± 2.34 µM.

In the case of `Nc1c2c(nc(=S)n1-c1ccccc1)OC1=C(C(=O)CCC1)C2c1cccs1` (centres unmarked) [Compound 7, 4-Amino-3-phenyl-5-(thiophen-2-yl)-2-thioxo-2,3,5,7,8,9-hexahydro-6H-chromeno[2,3-d]pyrimidin-6-one], the IC50 was determined as 6.26 ± 0.32 µM with HepG2, 5.6 ± 1.12 µM in the assay on MCF7, 7.28 ± 1.34 µM with A549 and 78.5 ± 2.05 µM with MCF-10A.

As to `N#CCc1nc(N)c2c(n1)OC1=C(C(=O)CCC1)C2c1cccs1` (centres unmarked) [Compound 11, 2-(4-Amino-6-oxo-5-(thiophen-2-yl)-6,7,8,9-tetrahydro-5H-chromeno[2,3-d]pyrimidin-2-yl)acetonitrile], the IC50 turned out to be 50.5 ± 3.16 µM in the assay with HepG2, 60.1 ± 3.45 µM in the assay on MCF7 and 50.7 ± 3.23 µM in the assay with A549.

As for `NC(=S)Cc1nc(N)c2c(n1)OC1=C(C(=O)CCC1)C2c1cccs1` (centres unmarked) [Compound 13, 2-(4-Amino-6-oxo-5-(thiophen-2-yl)-6,7,8,9-tetrahydro-5H-chromeno[2,3-d]pyrimidin-2-yl)ethanethioamide], the concentration for half-maximal inhibition (IC50) turned out to be 19.3 ± 2.07 µM in the assay on HepG2, 18.1 ± 2.05 µM in the assay with MCF7, 19.2 ± 3.88 µM in the assay with A549 and 51.6 ± 1.98 µM with MCF-10A.

Take `CCOC(=O)NC1=C(C#N)C(c2cccs2)C2=C(CCCC2=O)O1` (centres unmarked) [Compound 14, Ethyl (3-Cyano-5-oxo-4-(thiophen-2-yl)-5,6,7,8-tetrahydro-4H-chromen-2-yl)carbamate]: the concentration for half-maximal inhibition (IC50) in the assay on HepG2 amounted to 37.2 ± 1.45 µM; in the assay with MCF7, 39.3 ± 3.12 µM; in the assay on A549 it was 40.4 ± 3.15 µM.

As for `O=C1CCCC2=C1C(c1cccs1)C1=C(NC(=O)N3CCN=C13)O2` (centres unmarked) [Compound 15, 12-(Thiophen-2-yl)-2,6,8,9,10,12-hexahydro-5H-chromeno[3,2-e]imidazo[1,2-c]pyrimidine-5,11(3H)-dione], the concentration for half-maximal inhibition (IC50) with HepG2 worked out at 19.3 ± 2.06 µM; in the assay on MCF7 it was 19.3 ± 3.37 µM; in the assay with A549, 19 ± 3.45 µM; with MCF-10A, 52.3 ± 2.18 µM.

For the molecule `CC(=O)N(C(C)=O)C1=C(C#N)C(c2cccs2)C2=C(CCCC2=O)O1` (centres unmarked) [Compound 17, N-Acetyl-N-(3-cyano-5-oxo-4-(thiophen-2-yl)-5,6,7,8-tetrahydro-4H-chromen-2-yl)acetamide], the figures for the half-maximal inhibitory concentration (IC50) in the assay with HepG2, with MCF7 and with A549 were 25.3 ± 1.34 µM, 29 ± 2.38 µM and 24.3 ± 3.88 µM, respectively.

`N=c1c2c(nc(-c3ccccc3)n1N)OC1=C(C(=O)CCC1)C2c1cccs1` (centres unmarked) [Compound 19, 3-Amino-4-imino-2-phenyl-5-(thiophen-2-yl)-3,4,5,7,8,9-hexahydro-6H-chromeno[2,3-d]pyrimidin-6-one]: the half-inhibitory concentration (IC50) stood at 13.3 ± 1.96 µM with HepG2, 15.2 ± 1.65 µM in the assay on MCF7, 14.3 ± 1.96 µM with A549 and 60.5 ± 1.94 µM in the assay on MCF-10A.

As for `COc1cccc2c1C(=O)c1c(O)c3c(c(O)c1C2=O)C[C@@](O)(C(=O)CO)C[C@@H]3O[C@H]1C[C@H](N)[C@H](O)[C@H](C)O1` [doxorubicin, reference compound], the 50% inhibitory concentration (IC50) was found to be 2.71 ± 0.12 µM in the assay on HepG2, 1.68 ± 0.11 µM with MCF7, 2.22 ± 0.22 µM with A549 and 87.3 ± 1.47 µM with MCF-10A.
